Assays:
[1] = biological target: RAC-alpha serine/threonine-protein kinase (Homo sapiens, UniProt P31749); test: Inhibition of Protein kinase B alpha
[2] = Half life in mice plasma; type: ADME, organism-based; settings: mouse
[3] = biological target: cAMP-dependent protein kinase A (Bos taurus, UniProt P00515+P00517+P05131+P31322); test: Inhibition of bovine protein kinase A (PKA); type: protein-complex assay

Sequence of RAC-alpha serine/threonine-protein kinase (P31749 whole entry): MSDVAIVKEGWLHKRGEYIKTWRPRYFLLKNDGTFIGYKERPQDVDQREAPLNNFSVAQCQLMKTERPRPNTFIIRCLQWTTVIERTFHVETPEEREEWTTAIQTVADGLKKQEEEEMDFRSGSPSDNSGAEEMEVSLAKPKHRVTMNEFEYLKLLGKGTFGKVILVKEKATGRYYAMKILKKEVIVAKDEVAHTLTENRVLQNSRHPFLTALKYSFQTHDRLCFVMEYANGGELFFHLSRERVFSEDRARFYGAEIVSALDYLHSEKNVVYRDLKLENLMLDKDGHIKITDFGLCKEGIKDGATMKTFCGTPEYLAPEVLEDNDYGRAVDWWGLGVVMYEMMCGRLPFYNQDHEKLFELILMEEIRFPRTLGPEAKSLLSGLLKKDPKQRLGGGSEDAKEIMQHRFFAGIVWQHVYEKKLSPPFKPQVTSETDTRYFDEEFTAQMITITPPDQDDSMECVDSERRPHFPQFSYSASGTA

| IC50 [1] | half-life [2] | IC50 [3] | Structure (SMILES) |
| --- | --- | --- | --- |
| 0.355 µM | 29 h | – | COc1ccc(O)c(C(=O)c2ccc(CO[C@@H]3CCCNCC3NC(=O)c3ccncc3)cc2)c1F.Cl.Cl (stereo not given in full) |
| 3 µM | 161 h | 0.8 µM | COc1ccc(O)c(C(=O)c2ccc(CN[C@@H]3CCCNC[C@H]3NC(=O)c3ccncc3)cc2)c1F.Cl |

The remaining lines, values behind:

| Structure (SMILES) | IC50 [1] | half-life [2] | IC50 [3] |
| --- | --- | --- | --- |
| COc1ccc(O)c(C(=O)c2ccc(C(=O)N[C@@H]3CCCNCC3NC(=O)c3ccncc3)cc2)c1F.Cl.Cl (stereo not given in full) | – | 69 h | – |
| COc1ccc(O)c(C(=O)c2ccc(NC[C@@H]3CCCNCC3NC(=O)c3ccncc3)cc2)c1F (stereo not given in full) | 25 µM | – | 45 µM |
| COc1ccc(O)c(C(=O)c2ccc(/C=C/[C@@H]3CCCNC[C@H]3NC(=O)c3ccncc3)cc2)c1F | 0.16 µM | – | – |
| COc1ccc(O)c(C(=O)c2ccc(C(=O)O[C@@H]3CCCNCC3NC(=O)c3ccncc3)cc2)c1F.Cl.Cl (stereo not given in full) | – | < 0.0167 h | – |

Reference: ChEMBL document CHEMBL1149095, “Structure-based optimization of novel azepane derivatives as PKB inhibitors” (J Med Chem, 2004)
